From US12611386B2, “Extended release pharmaceutical formulation” (Douglas Pharmaceuticals Ltd., priority 2020, dated 2026)
Where two headings read alike, the source gives them in different places.

Legend:
[1] = test system: patients with treatment-resistant depression and/or treatment-resistant anxiety (TRD/TRA); test: Study ZPS-603 Cohort 4: mood ratings (HAMA, FQ, MADRS), open label multiple ascending dose; assay type: in vivo, human; conditions: injected drug in earlier treatment (FIG. 7)
Experimental: The objective of Cohort 4 was to evaluate efficacy, safety, PK and PD of an extended release ketamine oral formulation in patients with treatment-resistant depression and/or treatment-resistant anxiety (TRD/TRA). […] The design was an open label multiple ascending dose study. The initial dose was 60 mg, and could be escalated by an additional 60 mg 12 hourly, based on assessment of mood symptoms, to a maximum dose of 240 mg, with a total of 7 doses given 12 hourly between 0 and 72 hours. Endpoints included safety, tolerability, ketamine and norketamine PK, and PD (mood ratings including the Fear Questionnaire (FQ; Marks 1979), HAMA and MADRS, and dissociative symptom rating scale scores).

TRD patients = conditions: Singh et al. 2016, cited from earlier work
[2] = injected by any route of administration (e.g. Loo 2016); cited from earlier work

SMILES: CNC1(c2ccccc2Cl)CCCCC1=O (stereo not shown) [IV ketamine, 2-(2-chlorophenyl)-2-(methylamino)cyclohexan-1-one]
- onset of improvement of anxiety symptoms [1]: 1 to 2 h
- TRD patients remitted (TRD patients; 0.5 mg/kg IV thrice weekly): 23.1%
- TRD patients remitted (TRD patients; 0.5 mg/kg IV twice weekly for 15 days): 37.5%
- duration of marked dissociative symptoms after dosing [2]: up to 60 minutes
